According to patent publication US20210138090A1, “uPAR targeting peptide for use in peroperative optical imaging of invasive cancer” (FLUOGUIDE A/S, priority 2014, published 2021):
Square brackets hold non-standard residues; d marks the D form. Peptide text beside a SMILES is read from it. * marks the point of attachment. IRDye800CW = CC1(C)C(/C=C/C2=C(Oc3ccc(S(=O)(=O)O)cc3)C(=C/C=C3/N(CCCCS(=O)(=O)O)c4ccc(S(=O)(=O)O)cc4C3(C)C)/CCC2)=[N+](CCCCCC(=O)*)c2ccc(S(=O)(=O)[O-])cc21; Cha = N[C@@H](CC1CCCCC1)C(=O)O; AEEA = NCCOCCOCC(=O)O

How the values were obtained:
[1] = photostability under continuous laser exposure; format: physicochemical
Procedure: The photostability was evaluated by a factor 2 dilution series with four samples from 0.23-1.8 nM IRDye800-AE344 in 100 μL phosphate buffered saline (PBS) placed in a black 96-well plate. The well was placed in a black box with the Fluobeam mounted in the top at a distance of 23 cm from the well plate. Image acquisition was performed at 0 min, 10 min, 15 min, 20 min, 0.5 h, 1 h, 2 h, 3 h, 6 h, 10 h, 15 h, 24 h. Each dilution sample was normalized to time point 0 and the data from all four samples were pooled.

[2] = test system: orthotopic GBM (U-87 MG-luc2 cells); test: dynamic NIR imaging of orthotopic GBM on cross sectioned brain (Fluobeam); format: in vivo, mice; settings: for tumor mean fluorescence intensity (MFI): 333 ms exposure
Procedure: All experimental procedures in animals were carried out in accordance with the approval by The Animal Experiments Inspectorate, Denmark. 7-10-week-old female nude mice (strain: Rj:NMRI-Foxn1nu/nu, JANVIER LABS, France) were orthotopically xenografted with U-87 MG-luc2 cells.
The orthotopic GBM tumor model was established by inoculation of 500.000 cells in 10 μL ice cold PBS in the right hemisphere (1.5 mm lateral and 0.5 mm posterior to the bregma at 2 mm depth) using a stereotaxic frame (KOPF INSTRUMENTS, Tujunga, Calif., USA) with the automated microinjection pump UMP3 (WPI, Sarasota, Fla., USA). The cells were injected over 5 min with the syringe kept in place for further 3 min before retraction. Tumor growth was subsequently monitored on MRI with the BioSpec 7T (Bruker, Billerica, Mass., USA) with axial and coronal T2-wighted sequences. When the tumor size reached 2-17 mm^3, the animals were included in the fluorescence imaging protocol.
All image acquisition was performed with the Fluobeam system with (Fluosoft version: 2.2.1) (Fluoptics, Grenoble, France). To characterize the in vivo biodistribution and tumor imaging properties, IRDye800-AE344 was administered through tail vein injection into all the GBM bearing mice (n=35) at four different doses: 1 nmol, 3 nmol, 6 nmol, and 12 nmol. Two mice were sacrificed for each time point and the brain was removed and cross sectioned through the tumor for imaging. […] Accordingly, image acquisition was performed at following time points after injection: • 1 nmol: 0.5 h, 1 h, and 2 h • 3 nmol: 1 h, 2 h, 3 h, and 5 h • 6 nmol: 1 h, 3 h, 6 h, and 12 h • 12 nmol: 1 h, 3 h, 5 h, 10 h, 15 h, and 24 h
Images were analyzed and processed in ImageJ 1.52a, NIH, USA. Signal measurements were performed on the raw images generated by the Fluoptics system. Tumor signal was measured as a mean fluorescence intensity of the whole tumor and background signal was measured as the mean of a representative area with no tumor on the contralateral hemisphere. Presented pictures are contrast enhanced in ImageJ with the Contrast Enhancement (Saturated pixels: 0.3%).

[3] = vis/NIR spectral properties; format: physicochemical
Procedure: Fluorophore excitation and emission profiles were obtained with PTI QuantaMaster 400 (Horiba Ltd., Japan). Excitation profile was measured at λemission=850 nm and the emission profile were measured at λexcitation=740 nm with xenon arc lamps as excitation source. Absorption was measured on a Cary 300 UV-Vis (Agilent, Santa Clara, Calif., USA).

uPAR H47C-N259C = uPAR H47C-N259C (Homo sapiens, UniProt Q03405, H69C/N281C); test: SPR inhibition of uPAR binding to immobilized uPA, constrained uPAR variant (negative control)
Procedure: Covalent immobilization of purified human prouPA^S356A—was accomplished by injecting 12.5 μg/ml protein dissolved in 10 mM sodium acetate (pH 5.0) over a CM5 chip that had been pre-activated with NHS/EDC (N-ethyl-N′-[3-[…])propyl]-carbodiimide), aiming at a surface density of >5000 resonance units (RU) corresponding to 100 fmols/mm^2. After coupling the sensorchip was deactivated with 1 M ethanolamine. Binding of purified human uPAR as analyte was measured from 4 nM to 0.25 nM at 20° C. using 10 mM HEPES, 150 mM NaCl, 3 mM EDTA (pH 7.4) containing 0.05% (v/v) surfactant P20 as running buffer at a flow rate of 50 μl/min. In between cycles the sensorchip was regenerated by two consecutive 10-μl injections of 0.1 M acetic acid/HCl (pH 2.5) in 0.5 M NaCl. The inhibition of 3-fold dilutions of the compounds in question was measured for 4 nM uPAR with identical running conditions. All experiments were performed on a BiacoreT200 instrument.
For each inhibition peptide inhibition profile of uPAR binding to immobilized uPA there has been run a preceding standard curve and all calculations are based on the that standard curve.
Surface plasmon resonance (SPR) was applied to determine the […]-value of IRDye800-AE344 on the uPAR⋅uPA interaction in solution using a Biacore 3000 instrument essentially as described. In brief; pro-uPA^S356A, which is the natural ligand for uPAR. […] The analysis was carried out by measuring vobs of a fixed uPAR concentration (2 nM) incubated with a 3-fold dilution series of IRDye800-AE344 (ranging from 0.076 nM to 1.5 μM) for 300 sec at 20° C. with a flow rate of 50 μL/min. A standard curve was measured in parallel (2-fold dilution of uPAR covering 0.06 nM to 2 nM) including one repeated concentration point at the end to validate the biological integrity of the sensor chip. […] The parent nonamer peptide antagonist AE105 (Asp-Cha-Phe-D-Ser-D-Arg-Tyr-Leu-Trp-Ser-OH) was analyzed in parallel as positive control and the closed uPAR^H47C-N259C was used as negative control as its uPA binding cavity cannot accommodate AE105.

Chain of uPAR H47C-N259C (Q03405 23-305 H69C/N281C limits assumed): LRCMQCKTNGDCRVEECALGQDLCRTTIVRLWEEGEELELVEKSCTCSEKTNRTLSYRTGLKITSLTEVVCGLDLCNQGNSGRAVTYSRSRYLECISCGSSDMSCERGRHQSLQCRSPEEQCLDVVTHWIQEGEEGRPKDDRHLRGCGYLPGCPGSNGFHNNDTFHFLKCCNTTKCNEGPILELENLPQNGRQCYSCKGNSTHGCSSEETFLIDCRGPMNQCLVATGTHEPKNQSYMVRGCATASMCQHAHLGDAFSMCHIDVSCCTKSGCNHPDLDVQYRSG

Structure (SMILES): CC(C)C[C@H](NC(=O)[C@H](Cc1ccc(O)cc1)NC(=O)[C@@H](CCCNC(=N)N)NC(=O)[C@@H](CO)NC(=O)[C@H](Cc1ccccc1)NC(=O)[C@H](CC1CCCCC1)NC(=O)[C@H](CC(=O)O)NC(=O)COCCOCCNC(=O)COCCOCCNC(=O)[C@H](CCC(=O)O)NC(=O)[C@H](CCC(=O)O)NC(=O)CCCCC[N+]1=C(/C=C/C2=C(Oc3ccc(S(=O)(=O)O)cc3)C(=C/C=C3/N(CCCCS(=O)(=O)O)c4ccc(S(=O)(=O)O)cc4C3(C)C)/CCC2)C(C)(C)c2cc(S(=O)(=O)[O-])ccc21)C(=O)N[C@@H](Cc1c[nH]c2ccccc12)C(=O)N[C@@H](CO)C(=O)O [IRDye800CW-AE344, IRDye800-Glu-Glu-O2Oc-O2Oc-Asp-Cha-Phe-D-ser-D-arg-Tyr-Leu-Trp-Ser-OH] (IRDye800CW-EE[AEEA][AEEA]D[Cha]F[dS][dR]YLWS-OH)
- preserved fluorescence intensity (photostability) ([1]; continuous laser exposure for 1 h): 84%
- preserved fluorescence intensity (photostability) ([1]; continuous laser exposure, after 2 h): 62%
- maximal TBR ([2]; 1 nmol, at 0.5 h): 4.4
- tumor mean fluorescence intensity (MFI) ([2]; 1 nmol, at time of maximal TBR (0.5 h)): 29 a.u.
- maximal TBR ([2]; 3 nmol, at 1 h): 6.6
- tumor mean fluorescence intensity (MFI) ([2]; 3 nmol, at time of maximal TBR (1 h)): 77 a.u.
- TBR ([2]; 6 nmol, 1 h): 4.7
- tumor MFI ([2]; 6 nmol, 1 h): 108 a.u.
- tumor mean fluorescence intensity (MFI) ([2]; 6 nmol, 3 h): 82 a.u.
- TBR (highest) ([2]; 6 nmol, 3 h after injection): 7.0
- TBR ([2]; 6 nmol, 6 h): 6.1
- TBR ([2]; 6 nmol, 12 h): 4.5
- decrease in tumor MFI ([2]; 6 nmol, from 1 h to 3 h): 24%
- TBR ([2]; 6 nmol, from 1 h to 12 h after injection): above 4.5
- peak time of TBR ([2]; 12 nmol): 15 h
- tumor MFI relative to that at 6 nmol ([2]; 12 nmol): 58%
- maximal TBR ([2]; 12 nmol, at 15 h): 6.7
- tumor mean fluorescence intensity (MFI) ([2]; 12 nmol, at time of maximal TBR (15 h)): 48 a.u.
- Stokes shift [3]: 10 nm
- absorption peak λabs,max [3]: 777 nm
- excitation peak λexcitation,max [3]: 784 nm
- peak emission λemission,max [3]: 794 nm
- IC50 (uPAR H47C-N259C): 5.8 ± 0.02 µM
